In patent US12624004B2 (Fudan University, priority 2019, dated 2026):
Structures can show the parent of a compound that is named as a salt. Where two headings read alike, the source gives them in different places.

Experiments:
[1] = biological target: T1, μ opioid receptor (Homo sapiens, UniProt P35372); test: Competition binding assay on membranes of CHO cells expressing μ opioid receptor, [3H]-labeled ligand; conditions: for inhibition at 10 µM: Table 1-1, 10 μM concentration of compound, mean ± SD of three measurements; for Ki: read-out: μOR Ki
T1 construct: expressed in transfected cells; host or cells: CHO cells (membranes)
Summary of the method: (§1)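 CHO membranes (20–30 μg protein) incubated with [3H]-labeled ligand at 1–2 nM and test compounds, 30 min at 30° C; nonspecific binding with 1 μM corresponding ligand. Filtered on GF/C, washed with 50 mM Tris-HCl pH 7.4, scintillation-counted. IC50 converted to Ki by Ki=IC50/(1+[L]/Kd).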

[2] = biological target: T2, δ opioid receptor (Homo sapiens, UniProt P41143); test: Competition binding assay on membranes of CHO cells expressing δ opioid receptor, [3H]-labeled ligand; conditions: for inhibition at 1 µM / inhibition at 10 µM: 0.5 h; for inhibition at 10 µM: Table 1-1, 10 μM concentration of compound; for Ki: Table 5-1, read-out: δOR Ki
T2 construct: expressed in transfected cells; host or cells: CHO cells (membranes)
Summary of the method: as §1

[3] = biological target: T3, κ opioid receptor (Homo sapiens, UniProt P41145); test: Competition binding assay on membranes of CHO cells expressing κ opioid receptor, [3H]-labeled ligand; conditions: for inhibition at 1 µM / inhibition at 10 µM: 0.5 h; for inhibition at 10 µM: Table 1-1, 10 μM concentration of compound; for Ki: Table 5-1, read-out: κOR Ki
T3 construct: expressed in transfected cells; host or cells: CHO cells (membranes)
Summary of the method: as §1

[4] = system: Female mice; test: In vivo hot plate method analgesia test; conditions: intraperitoneal; for % MPE @ 10 mg/kg: Table 3-2, hot plate 55° C.; for Maximum percentage effective analgesic (% MPE): Table 1-2, hot plate 55° C.; for Maximum percentage effective analgesic (% MPE) / % MPE (5 mg/kg): 5 mg/kg dose; for Maximum percentage effective analgesia (% MPE): Table 5-2, hot plate 55° C.; for % MPE @ 10 mg/kg / Maximum percentage effective analgesia (% MPE): 10 mg/kg dose; for % MPE (5 mg/kg): Table 2-2, hot plate 55° C.
Description: Female mice weighing about 20 g were placed on a hot plate apparatus preheated to 55° C., and the latency of the hindfoot response of the mice was used as the pain threshold indicator. Animals were screened before the experiment, and those with response latency less than 5 s or more than 30 s were excluded. To prevent foot scalding, the maximum observation time was set at 60 s. The basal pain threshold was the average of two measurements, with a 5-min interval between measurements. pain thresholds were measured at 15 m, 30 m, 60 m and 120 m after intraperitoneal injection in each group of mice. The percentage effective analgesia (% MPE) was calculated according to the following formula: percentage effective analgesia (% MPE) (post-dose latency−pre-dose latency)/(60−pre-dose latency)×100%. ED50 values were calculated based on the effective percentage of analgesia using the software Graphpad prism 5.0 software.
(§2) Female mice weighing about 20 g were placed on a hot plate apparatus preheated to 55° C., and the latency of the hindfoot response of the mice was used as the pain threshold indicator. Animals were selected before the experiment, and those with response latency less than 5 s or greater than 30 s were excluded. To prevent foot scalding, the maximum observation time was set at 60 s. The basal pain threshold was the average of two measurements, with a 5-min interval between measurements. pain thresholds were measured at 15 min, 30 min, 60 min and 120 min after intraperitoneal administration in each group of mice. The percentage of analgesic effectiveness (% MPE) was calculated according to the following equation. Percentage of effective analgesia (% MPE)_(Pre-dose incubation period−Incubation period after drug administration)/(60-Pre-dose incubation period)×100%. ED50 values were calculated based on the effective percentage of analgesia using GraphPad prism 5.0 software.
as §2, with “were screened” for “were selected”, “measurements. Pain” for “measurements. pain”, “following formula.” for “following equation. Percentage of effective analgesia (% MPE)_(Pre-dose incubation period−Incubation period after drug administration)/(60-Pre-dose incubation period)×100%. ED50 values were calculated based on the effective percentage of analgesia using GraphPad prism 5.0 software.”
ED50 values were calculated based on the effective percentage of analgesia using Graphpad Prism 5.0.
Female mice weighing about 20 g were placed on a hot plate apparatus preheated to 55° C., and the latency of the hindfoot response of the mice was used as the pain threshold indicator. Animals were screened before the experiment, and those with response latency less than 5 s or more than 30 s were excluded. To prevent foot scalding, the maximum observation time was set at 60 s. The basal pain threshold was the average of two measurements, with a 5-min interval between measurements. pain thresholds were measured at 15 min, 30 min, 60 min and 120 min after intraperitoneal administration in each group of mice. The analgesic effective percentage (% MPE) was calculated according to the following formula: analgesic effective percentage (% MPE)=(latency after drug administration−latency before drug administration)/(60−latency before drug administration)×100%. ED50 values were calculated based on the effective percentage of analgesia using the software Graphpad prism 5.0.
Female mice weighing about 20 g were placed on a hot plate apparatus preheated to 55° C. and the latency of the hindfoot response was used as an indicator of pain threshold. […]

[5] = Table 3-1, 1 μM concentration of compounds, read-out: μOR Binding rate (%)
[6] = Table 3-1, 1 μM concentration of compounds, read-out: δOR Binding rate (%)
[7] = Table 3-1, 1 μM concentration of compounds, read-out: κOR Binding rate (%)
[8] = Table 2-1, 1 μM concentration of compound, read-out: δOR Binding rate (%)
[9] = Table 2-1, 1 μM concentration of compound, read-out: κOR Binding rate (%)
[10] = 0.5 h, read-out: μOR Combination rate (%)
[11] = read-out: δOR Combination rate (%)
[12] = read-out: κOR Combination rate (%)

Work on COc1cccc(C2(O)CCN(C(=O)Nc3cccs3)CC2CN(C)C)c1 (stereo not shown) [FWBF19, 3-((Dimethylamino)methyl)-4-hydroxy-4-(3-methoxyphenyl)-N-(thiophen-2-yl)piperidine-1-carboxamide hydrochloride] yielded an inhibition at 1 µM [1, 5] of 0%, an inhibition at 1 µM [2, 6] of 38.2 ± 9.4% and an inhibition at 1 µM [3, 7] of 27.5 ± 6.4%. The “% MPE @ 10 mg/kg” value [4] was 20.07%.

COc1cccc(C2(O)CCN(C(=O)Nc3ccc(Cl)c(Cl)c3)CC2CN(C)C)c1.Cl (stereo not shown) [FWBF5, N-(3,4-dichlorophenyl)-3-((dimethylamino)methyl)-4-hydroxy-4-(3-methoxyphenyl)piperidine-1-carboxamide hydrochloride] was tested, and the inhibition at 1 µM [1, 5] was 46 ± 5.4%, the inhibition at 1 µM [2, 6] was 0% and the inhibition at 1 µM [3, 7] was 18.2 ± 1.9%. For the same compound, the “% MPE @ 10 mg/kg” value [4] was 25.42%.

In the case of COc1cccc(C2(O)CCN(C(=O)Nc3cccc(F)c3)CC2CN(C)C)c1 (stereo not shown) [FWBF7, 3-((Dimethylamino)methyl)-N-(3-fluorophenyl)-4-hydroxy-4-(3-methoxyphenyl)piperidine-1-carboxamide hydrochloride], the inhibition at 1 µM [1, 5] is reported as 36.7 ± 7.4%, the inhibition at 1 µM [2, 6] is reported as 9.2 ± 7.8% and the inhibition at 1 µM [3, 7] is reported as 0%. For the same compound, the ED50 ([4]; Mus musculus, ip, Table 3-2, hot plate) was 4.12 mg/kg.

COc1cccc(C2(O)CCC(N(C)S(=O)(=O)c3cccs3)CC2CN(C)C)c1.Cl (stereo not shown) [N-(3-((Dimethylamino)methyl)-4-hydroxy-4-(3-methoxyphenyl)cyclohexyl)-N-methylthiophene-2-sulfonamide hydrochloride] was tested, and the inhibition at 10 µM ([1]; read-out: μOR Binding rate (%)) was 62 ± 6.8%, the inhibition at 10 µM ([2]; read-out: δOR Binding rate (%)) was 0% and the inhibition at 10 µM ([3]; read-out: κOR Binding rate (%)) was 51.4 ± 7.5%. For the same compound, the “Maximum percentage effective analgesic (% MPE)” value [4] was 14.3%.

For COc1cccc(C2(O)CCN(C(=O)Cc3cccc(F)c3)CC2CN(C)C)c1.Cl (stereo not shown) [FWBE12, 1-(3-((Dimethylamino)methyl)-4-hydroxy-4-(3-methoxyphenyl)piperidin-1-yl)-2-(3-fluorophenyl)ethyl-1-one hydrochloride], the Ki ([1]; Table 5-1) was 82.3 ± 3.8 nM, the Ki [2] was 2390 ± 46 nM and the Ki [3] was 2360 ± 95.5 nM. The “Maximum percentage effective analgesia (% MPE)” value [4] was 88.38%.

With COc1cccc(C2(O)CCN(S(=O)(=O)Cc3ccccc3F)CC2CN(C)C)c1.Cl (stereo not shown) [FWBH14, 3-((Dimethylamino)methyl)-1-((2-fluorobenzyl)sulfonyl)-4-(3-methoxyphenyl)piperidin-4-ol hydrochloride] the Ki ([1]; Table 2-1) was 29.6 ± 2.53 nM, the inhibition at 1 µM [2, 8] was 40.8 ± 2.66% and the inhibition at 1 µM [3, 9] was 17.6 ± 6.34%. The “% MPE (5 mg/kg)” value [4] was 81.20%.

Work on COc1cccc(C2(O)CCN(C(=O)Cc3ccccc3)CC2CN(C)C)c1.Cl (stereo not shown) [FWBE3, 1-(3-((Dimethylamino)methyl)-4-hydroxy-4-(3-methoxyphenyl)piperidin-1-yl)-2-phenylethyl-1-one hydrochloride] yielded an inhibition at 1 µM [1, 10] of 41.1 ± 2.3%, an inhibition at 1 µM [2, 11] of 11.7 ± 0.9% and an inhibition at 1 µM [3, 12] of 23.4 ± 5.7%. The “Maximum percentage effective analgesia (% MPE)” value [4] was 63.5%.

COc1cccc(C2(O)CCN(C(=O)NC34CC5CC(CC(O)(C5)C3)C4)CC2CN(C)C)c1.Cl [FWBF16, 3-((dimethylamino)methyl)-4-hydroxy-N-((1R,3S,5R,7S)-3-hydroxyadamantan-1-yl)-4-(3-methoxyphenyl)piperidine-1-carboxamide hydrochloride] gave an inhibition at 1 µM [1, 5] of 0%, an inhibition at 1 µM [2, 6] of 1.9% and an inhibition at 1 µM [3, 7] of 0%. The “% MPE @ 10 mg/kg” value [4] was 16.07%.

COc1cccc(C2(O)CCN(C(=O)Cc3ccsc3)CC2CN(C)C)c1.Cl (stereo not shown) [FWBE2, 1-(3-((Dimethylamino)methyl)-4-hydroxy-4-(3-methoxyphenyl)piperidin-1-yl)-2-(thiophen-3-yl)ethyl-1-one hydrochloride] gave an inhibition at 1 µM [1, 10] of 40.6 ± 0.9%, an inhibition at 1 µM [2, 11] of 14.7 ± 0.9% and an inhibition at 1 µM [3, 12] of 20.8 ± 1.9%. The “Maximum percentage effective analgesia (% MPE)” value [4] was 42%.

Compound CCCCS(=O)(=O)N1CCC(O)(c2cccc(OC)c2)C(CN(C)C)C1.Cl (stereo not shown) [FWBH15, 1-(Butylsulfonyl)-3-((dimethylamino)methyl)-4-(3-methoxyphenyl)piperidin-4-ol hydrochloride] has a Ki ([1]; Table 2-1) of 34.9 ± 9.4 nM, an inhibition at 1 µM [2, 8] of 27.2 ± 1.43% and an inhibition at 1 µM [3, 9] of 9.86 ± 2.67%. The “% MPE (5 mg/kg)” value [4] was 93.73%.

With COc1cccc(C2(O)CCN(C(=O)Cc3cccc([N+](=O)[O-])c3)CC2CN(C)C)c1.Cl (stereo not shown) [FWBE22, 1-(3-((Dimethylamino)methyl)-4-hydroxy-4-(3-methoxyphenyl)piperidin-1-yl)-2-(3-nitrophenyl) ethyl-1-one hydrochloride] the Ki ([1]; Table 5-1) was 85.6 ± 15.4 nM, the Ki [2] was over 10000 nM and the Ki [3] was 1990 ± 146 nM. The “Maximum percentage effective analgesia (% MPE)” value [4] was 72.88%.

With COc1cccc(C2(O)CCC(CS(=O)(=O)c3ccccc3)CC2CN(C)C)c1.Cl (stereo not shown) [2-((Dimethylamino)methyl)-1-(3-methoxyphenyl)-4-((phenylsulfonyl)methyl)cyclohexane-1-ol hydrochloride] the inhibition at 10 µM ([1]; read-out: μOR Binding rate (%)) was 86.9 ± 2%, the inhibition at 10 µM ([2]; read-out: δOR Binding rate (%)) was 9.3% and the inhibition at 10 µM ([3]; read-out: κOR Binding rate (%)) was 34.6 ± 5.1%. The “Maximum percentage effective analgesic (% MPE)” value [4] was 22.4%.

With COc1cccc(C2(O)CCC(N(C)S(=O)(=O)c3ccccc3)CC2CN(C)C)c1.Cl (stereo not shown) [N-(3-((Dimethylamino)methyl)-4-hydroxy-4-(3-methoxyphenyl)cyclohexyl)-N-methylbenzenesulfonamide hydrochloride] the inhibition at 10 µM ([1]; read-out: μOR Binding rate (%)) was 86.7 ± 1.6%, the inhibition at 10 µM ([2]; read-out: δOR Binding rate (%)) was 0% and the inhibition at 10 µM ([3]; read-out: κOR Binding rate (%)) was 46.7 ± 9.2%. The “Maximum percentage effective analgesic (% MPE)” value [4] was 15.8%.

COc1cccc(C2(O)CCN(C(=O)Cc3cccc4ccccc34)CC2CN(C)C)c1.Cl (stereo not shown) [FWBE16, 1-(3-((Dimethylamino)methyl)-4-hydroxy-4-(3-methoxyphenyl)piperidin-1-yl)-2-(naphthalen-1-yl)ethyl-1-one hydrochloride] showed a Ki ([1]; Table 5-1) of 353 ± 4.5 nM, a Ki [2] of 2160 ± 72 nM and a Ki [3] of 1700 ± 379 nM. The “Maximum percentage effective analgesia (% MPE)” value [4] was 78.72%.

Compound COc1cccc(C2(O)CCN(C(=O)Nc3cc(C(F)(F)F)cc(C(F)(F)F)c3)CC2CN(C)C)c1.Cl (stereo not shown) [FWBF10, N-(3,5-Bis(trifluoromethyl)phenyl)-3-((dimethylamino)methyl)-4-hydroxy-4-(3-methoxyphenyl) piperidine-1-carboxamide hydrochloride] has an inhibition at 1 µM [1, 5] of 0%, an inhibition at 1 µM [2, 6] of 0.9% and an inhibition at 1 µM [3, 7] of 8.6 ± 4.8%. The “% MPE @ 10 mg/kg” value [4] was 7.74%.

Compound COc1cccc(C2(O)CCN(S(=O)(=O)Cc3ccc(C)cc3)CC2CN(C)C)c1.Cl (stereo not shown) [FWBH8, 3-((Dimethylamino)methyl)-4-(3-methoxyphenyl)-1-((4-methylbenzyl)sulfonyl)piperidin-4-ol hydrochloride] has a Ki ([1]; Table 2-1) of 247 ± 49.4 nM, an inhibition at 1 µM [2, 8] of 11.9 ± 1.31% and an inhibition at 1 µM [3, 9] of 29 ± 0.32%. The “% MPE (5 mg/kg)” value [4] was 17.36%.
